PubChem BioAssay AID179 (DTP/NCI, 2004)
The source made the active and inactive calls.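 The calls were made as follows: active = compounds giving half or more protection of infected cells from virus-caused growth loss, again on retest; inactive = the rest.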

System: CEM cells HIV-1 protection, formazan growth assay
Experiment: NCI AIDS Antiviral Assay
Details: for IC50: measured here: growth of uninfected CEM cells
In short: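 Screen of anti-HIV-1 activity in human CEM cells using a formazan-based growth measurement at five drug concentrations. Hits with 50% or greater protection were repeated, and confirmation required reproducible complete protection.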

CO[C@@H]1C[C@H]2[C@@H]3CC[C@H]([C@H](C)CO)[C@@]3(C)CC[C@@H]2[C@@]2(C)CC[C@H]3C[C@]312
EC50: > 174 µM
IC50: 81.3 µM

O=C1Oc2ccccc2C(=O)/C1=C/N1C(=O)/C(=C/c2ccc([N+](=O)[O-])cc2)SC1=S
EC50: > 200 µM
IC50: 1.1 µM

CC(C)C1=CC2C3C(=O)NC(=O)C3C1C1C3C(=O)NC(=O)C3C21 (configuration not stated)
EC50: > 794 µM
IC50: > 794 µM

O=c1/c(=C/c2ccc(Cl)cc2)sc2nc(-c3ccccc3)nn12
EC50: > 200 µM
IC50: > 200 µM

NC(=O)c1ncn(C/C=C/CO)c1N
EC50: > 200 µM
IC50: > 200 µM

CC(NC(=O)C(N)CC(=O)O)NC(=O)C1CCC1 (configuration not stated)
EC50: > 200 µM
IC50: > 200 µM

CSc1cnn(CCC#N)c(=O)n1
EC50: > 200 µM
IC50: 36.3 µM

C[P+]1(c2ccccc2)CCC(N)=C(C#N)C1 (configuration not stated)
EC50: > 1070 µM
IC50: > 1070 µM

CC1C(=O)C(C)C(c2ccccc2)N(N=O)C1c1ccccc1 (configuration not stated)
EC50: > 42.7 µM
IC50: > 42.7 µM

Cc1ccc2cccc(-c3cccc4ccccc34)c2n1
EC50: > 200 µM
IC50: 10.5 µM

CC1=C(C(=O)Nc2ccc([N+](=O)[O-])cc2)C(c2ccccc2F)C(C(=O)Nc2ccc([N+](=O)[O-])cc2)=C(C)N1
EC50: > 13.5 µM
IC50: > 13.5 µM

COc1cc([N+](=O)[O-])c(S(=O)(=O)O)cc1-n1nc(-c2ccccc2)n[n+]1-c1cc(S(=O)(=O)[O-])c([N+](=O)[O-])cc1OC
EC50: > 100 µM
IC50: > 100 µM

COc1ccc2nc3cc(Cl)ccc3c(Sc3ccc(NC(C)=O)cc3)c2c1
EC50: > 12.6 µM
IC50: > 12.6 µM

Cc1c2nc3ccccc3sc-2cc(=O)c1C
EC50: > 21.4 µM
IC50: > 21.4 µM

COc1ccc2[nH]c(C[P+](c3ccccc3)(c3ccccc3)c3ccccc3)cc2c1
EC50: > 200 µM
IC50: 12 µM

COc1ccccc1C(=O)OCC1CCCN2CCCCC12 (configuration not stated)
EC50: > 200 µM
IC50: 27.5 µM

O=Nn1ccccc1=Nc1ccccc1
EC50: > 200 µM
IC50: 117 µM

COc1ccc2c3c1OC1C4(OC)C=CC5(c6c(OC)ccc(O)c64)C(C2)N(C)CCC315 (configuration not stated)
EC50: > 100 µM
IC50: 53.7 µM

CCNCC(O)COc1ccc2c(c1)[n+]([O-])nc(N)[n+]2[O-] (configuration not stated)
EC50: > 200 µM
IC50: 13.8 µM

CCOC(=O)C1CN(C2CC2)CCC1=O (configuration not stated)
EC50: > 200 µM
IC50: > 200 µM

COc1ccc(-c2cc(=O)c3c(C)cc(O)cc3o2)cc1OC
EC50: > 200 µM
IC50: 174 µM

CC(=O)NNC(=S)/N=C/c1c(C)[nH]n(-c2ccccc2)c1=O
outcome: inactive

COc1ccc(-c2c(-c3ccccc3)c(C)c3ccccn23)cc1
EC50: > 200 µM
IC50: 42.7 µM

COc1ccc(/C(C)=N\NS(=O)(=O)c2ccc(NC(C)=O)cc2)cc1
EC50: > 182 µM
IC50: > 182 µM

Nc1nc([O-])c([I+]c2ccccc2)c(=O)[nH]1
EC50: > 200 µM
IC50: > 200 µM

O=c1[nH]nc(-c2ccc3ccccc3c2)[nH]1
EC50: 135 µM
IC50: > 200 µM

CCOc1ccccc1/C=C(/C#N)C(N)=O
EC50: > 200 µM
IC50: 117 µM

O=c1c(SCc2ccccc2)c(N2CCOCC2)cnn1-c1ccccc1
EC50: > 661 µM
IC50: 575 µM

COC=C(c1cc(Br)c(OC)c(C(=O)OC)c1)c1cc(Br)c(OC)c(C(=O)OC)c1
EC50: > 200 µM
IC50: 13.5 µM

CC1C2C1C1C3NN=CC3C2n2c(=O)n(-c3ccccc3)c(=O)n21 (configuration not stated)
EC50: > 200 µM
IC50: > 200 µM

[Cl][Sn]([Cl])([c]1ccccc1)[c]1ccccc1
outcome: inactive

C#CCN(C(=O)C(F)(F)F)C(/C=C\C(=O)OC)(C(=O)OCC)C(=O)OCC
EC50: > 200 µM
IC50: 83.2 µM

Nc1nccc2c1ncn2C1C=C(CO)C(O)C1O (configuration not stated)
EC50: > 832 µM
IC50: 0.324 µM

COc1ccc(C2=C/C(=C3\C(=O)Oc4ccccc4C3=O)SS2)cc1
EC50: > 200 µM
IC50: > 200 µM

CC[N+]1(C2=C([O-])C(F)(F)C2=O)CCCCC1
EC50: > 200 µM
IC50: > 200 µM

CCOC(=O)C1=CC(C(=O)OCC)=C2C=CC=C3C=CC=C1N32
EC50: > 57.5 µM
IC50: 12.9 µM

CC(=O)OCC1OC(SC2=NC(=O)CS2)C(OC(C)=O)C(OC(C)=O)C1OC(C)=O (configuration not stated)
EC50: > 200 µM
outcome: inactive
IC50: 74.1 µM

CC(C)O[C@H]1N(C2CC(N=[N+]=[N-])C(CO)O2)C(=O)NC(=O)[C@]1(C)Br (some centres not stated)
EC50: 2.88 µM
IC50: > 200 µM

COC(=O)c1c2c(cc3nc4ccccc4nc13)OCO2
EC50: > 200 µM
IC50: > 200 µM

CCCNC(=O)N(CC(C)(C)C)S(=O)(=O)c1ccc(Cl)cc1
outcome: inactive

CC1(C)SCCCCCCCSC(C)(C)SCCCCCCCS1
EC50: > 63.1 µM
IC50: > 63.1 µM

O=C(Nc1ccc(C2=NCCN2)cc1)Nc1cccc(C(=O)Nc2ccc(C3=NCCN3)cc2)c1
EC50: 12.9 µM
IC50: 74.1 µM

O=[N+]([O-])c1ccc(CSc2nn(Cc3ccc([N+](=O)[O-])cc3)cc3ncnc2-3)cc1
EC50: > 200 µM
IC50: 19.5 µM

CC1=NN(c2nc(N)nc(NS(=O)(=O)c3cc(C)c(Cl)cc3S)n2)C(C)(C)C1
EC50: 105 µM
IC50: 479 µM

COc1ccc(NC(=O)CC/C(CC(=O)c2ccccc2Cl)=N\Nc2nnc(C)n2N)cc1
EC50: > 537 µM
IC50: 191 µM

CC1(C)O[C@H](C(=O)O)[C@@H](C(=O)O)O1
EC50: > 200 µM
IC50: > 200 µM

NCCCCN(CCCN)Cc1ccccc1
outcome: inactive

CC(=O)OCC1OC(n2c(=S)n(-c3ccccc3)c(=S)c3ccccc32)C(OC(C)=O)C(OC(C)=O)C1OC(C)=O (configuration not stated)
EC50: > 16.6 µM
IC50: > 16.6 µM

O=C1c2c(nc3ccccc3c2-c2ccccc2)CN1Nc1ccccc1
EC50: > 87.1 µM
IC50: > 87.1 µM

O=[N+]([O-])c1ccc2cnn(CCO)c2c1
EC50: > 200 µM
IC50: > 200 µM

COc1ccc(CNc2cnc3cc(N)ccc3n2)cc1OC
EC50: > 115 µM
IC50: > 115 µM

CC(=O)C=O
outcome: inactive

CCCNCCCC(NC(C)=O)C(=O)NCc1ccccc1 (configuration not stated)
EC50: > 813 µM
IC50: > 813 µM

Cc1c2c(cc3c1C(=O)C(=O)C1=C3OCC1C)C(C)(C)CCC2 (configuration not stated)
outcome: inactive

COC(=O)CN(CC(O)C(NC(C)=O)C(O)C=O)C(=O)OCc1ccccc1 (configuration not stated)
EC50: > 200 µM
IC50: > 200 µM

O=C1/C(=C/c2cccc([N+](=O)[O-])c2)SC(=S)N1C1CC1
EC50: > 32.4 µM
IC50: > 32.4 µM

CCCCc1c2c(nc3c1CCCC3O)/C(=C/c1ccccc1)CCC2 (configuration not stated)
EC50: > 6.31 µM
IC50: > 6.31 µM

O=C1OC(=C(Cl)Cl)C2C3c4ccccc4C(c4ccccc43)C12 (configuration not stated)
EC50: > 100 µM
IC50: 47.9 µM

O=C(O)C1CC(C2CCCCN2)CN2CCCCC12 (configuration not stated)
EC50: > 200 µM
IC50: > 200 µM

COc1ccc2c(=O)c(-c3cc4c(cc3OC)OCO4)coc2c1
EC50: > 200 µM
IC50: > 200 µM

COC(=O)c1csnn1
EC50: > 1740 µM
IC50: > 1740 µM

CC(C)=CCCC(C)CCN(O)CC(CO)OC(CO)n1cc(C)c(=O)[nH]c1=O (configuration not stated)
EC50: > 200 µM
IC50: 135 µM

COC(=O)c1nc(N)[nH]c(=O)c1CCCCCc1c(C(=O)OC)nc(N)[nH]c1=O
EC50: > 17.8 µM
IC50: > 17.8 µM

O=C1NC(=O)[C@@H](OCC2CCCCC2)[C@@H]2OCC3OC(C(O)C3O)C12 (some centres not stated)
EC50: > 200 µM
IC50: > 200 µM

C[C@]12CC[C@H]3[C@@H](CCC4=C/C(=N/OCCN5CCCCC5)CC[C@@]43C)[C@@H]1CC[C@@H]2O
EC50: > 200 µM
IC50: 4.17 µM

O=C(CCCN1CCC2(CC1)CC(=O)N(N1CCCCCC1)C2=O)c1ccc(F)cc1
EC50: > 200 µM
IC50: > 200 µM

O=C(O)c1ccc(CI)cc1
EC50: > 200 µM
IC50: 24.5 µM

COc1cnnc2ccccc12
EC50: > 676 µM
IC50: 603 µM

CCS[C@@H]([C@@H](COC(C)=O)OC(C)=O)[S@](=O)CC
EC50: > 200 µM
IC50: 26.3 µM

O=S(=O)(O)c1cc2onnc2c2ccccc12
EC50: > 1000 µM
IC50: 525 µM

C=CCCCN1C(=O)CCCC1=O
outcome: inactive

Cc1c2c(n(CCc3ccccc3)c1C)NN=C(C#N)S2(=O)=O
EC50: > 200 µM
IC50: > 200 µM

O=C(c1ccco1)N(Cc1ccco1)C(=S)Nc1ccccc1
EC50: > 200 µM
IC50: 12 µM

N#CNC1=NCOCN1
EC50: > 708 µM
IC50: > 708 µM

O=C1OC([C@H](O)c2cccnc2)c2ccccc21 (some centres not stated)
EC50: > 200 µM
IC50: > 200 µM

Cc1cc(O)c(C(C)(C)C)cc1Sc1cc(C(C)(C)C)c(O)cc1C
EC50: > 200 µM
IC50: 6.46 µM

C[C@]12CC(C=O)C(=O)C(O)=C1CC[C@@H]1C2CC[C@@]2(C)C1CC[C@]2(C)O (some centres not stated)
outcome: inactive

O=C1c2sc(-c3ccc(F)cc3)cc2-n2cccc21
EC50: > 200 µM
IC50: 120 µM

C/C(CC(=O)Nc1cccc(Cl)c1C)=N\N=C(N)N
EC50: > 91.2 µM
IC50: > 91.2 µM

S=C1NCCN1C(=S)NC1CCCCC1
EC50: 22.4 µM
IC50: > 100 µM

CN(C)Cc1cc(CN(C)C)c(O)c(CN(C)C)c1
EC50: > 200 µM
IC50: > 200 µM

NC(=O)c1c2n(c3ncnc(N)c13)C1OC(CO)C(O)C1S2 (configuration not stated)
EC50: > 389 µM
IC50: > 389 µM

CCOC(=O)C[P+](c1ccc(OC)cc1)(c1ccc(OC)cc1)c1ccc(OC)cc1
EC50: > 200 µM
IC50: 33.1 µM

COC1=CC(=O)c2c(O)c3c(c(O)c2C1=O)C=C(C)OC3O (configuration not stated)
outcome: inactive

O=c1[nH]c(=O)c2c3n(cc2[nH]1)CCCCC3
EC50: > 200 µM
IC50: > 200 µM

Cc1cn(C2C=CC(O)CC2)c(=O)[nH]c1=O (configuration not stated)
EC50: > 589 µM
IC50: > 589 µM

Cc1ccc(S(=O)(=O)N2CCC[C@@H]2C(=O)O[C@@H]2CCC3CC=CC32)cc1 (some centres not stated)
EC50: > 200 µM
IC50: 12.6 µM

C=CCOCn1ccc(=O)[nH]c1=O
EC50: > 200 µM
IC50: > 200 µM

O=C1Sc2ccccc2C(=O)N2C1CSC2c1ccccc1 (configuration not stated)
EC50: > 200 µM
IC50: > 200 µM

C=CCN1C(=O)CSC1=S
EC50: > 288 µM
IC50: 13.5 µM

CCOP12(OCC)NC(=O)OC1(C(F)(F)F)c1ccccc1O2 (configuration not stated)
EC50: > 141 µM
IC50: > 141 µM

CN(C)c1ccc(/C=C/C(=O)C(C)(C)C)cc1Br
EC50: > 32.4 µM
IC50: 21.4 µM

C=C1CC[C@@](C)(c2ccc(CO)cc2)C1C (some centres not stated)
outcome: inactive
